The subject of one test is GP2d cells (KRAS G12D). As to the kind of experiment: Cell-based pERK HTRF assay in GP2d cell (Biological Example 2). Conditions: GP2d, GP2d (KRAS G12D) cells. In outline:
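60 min compound, 0.25% DMSO, 9-pt half-log curve from 1 μM or 100 nM; DMEM/10% FBS.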
A general note: Time-resolved FRET reads energy transfer from a long-lived donor to a nearby acceptor.

Test [1] addresses T1, Avi-KRAS G12D (2-169) GTP/RAF1 RBD-3xFLAG (51-131) (Homo sapiens, UniProt P01116, G12D).
T1 construct: Avi-KRAS G12D (2-169)
In words: Raf1-KRAS G12D-GTP disruption HTRF assay (Biological Example 3). The class given is binding. Conditions: KRAS G12D, GTP-loaded. In outline: (§1)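 An HTRF assay measured disruption of 50 nM Avi-KRAS (2-169)-GTP (WT, G12C, G12D or G12V) bound to RAF1 RBD-3xFLAG (51-131). Buffer was Tris pH 7.5 with 5 mM MgCl2 and 10% DMSO. Compounds (30–0.005 μM, 3-fold, 10 points) were incubated 1 h at room temperature, and activity is given as % of DMSO.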

In test [2] the target is T2, Avi-KRAS G12V (2-169) GTP/RAF1 RBD-3xFLAG (51-131) (Homo sapiens, UniProt P01116, G12V).
T2 construct: Avi-KRAS G12V (2-169)
T2 sequence (P01116 2-169 isoform P01116-2 G12V): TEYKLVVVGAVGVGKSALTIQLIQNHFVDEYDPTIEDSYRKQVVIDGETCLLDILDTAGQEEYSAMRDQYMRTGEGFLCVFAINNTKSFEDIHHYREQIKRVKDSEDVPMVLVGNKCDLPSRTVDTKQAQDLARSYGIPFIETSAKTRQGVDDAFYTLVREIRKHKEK
In words: Raf1-KRAS G12V-GTP disruption HTRF assay (Biological Example 3). Conditions: KRAS G12V, GTP-loaded. The class given is binding. The procedure, abridged: as §1

The test system of another test is SW620 cells (KRAS G12V). In words: Cell-based pERK HTRF assay in SW620 cell (Biological Example 4). Conditions: Homo sapiens, SW-620, SW620 (KRAS G12V) cells. In outline: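 SW620 cells were treated for 4 h with compound in a 9-point half-log series from 1 μM top (0.25% DMSO), then lysed. Phospho-ERK was detected by HTRF with d2 and Eu cryptate antibodies after 4–24 h at room temperature, read at 615 nm emission.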

The target in test [3] is T3, Avi-KRAS WT (2-169) GTP/RAF1 RBD-3xFLAG (51-131) (Homo sapiens, UniProt P01116).
T3 construct: Avi-KRAS WT (2-169)
T3 sequence (P01116 2-169 isoform P01116-2): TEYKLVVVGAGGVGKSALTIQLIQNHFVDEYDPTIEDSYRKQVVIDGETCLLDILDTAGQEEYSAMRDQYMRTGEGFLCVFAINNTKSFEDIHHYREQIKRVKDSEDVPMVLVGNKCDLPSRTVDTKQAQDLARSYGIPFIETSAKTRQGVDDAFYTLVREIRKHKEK
In words: Raf1-KRAS WT-GTP disruption HTRF assay (Biological Example 3). Conditions: KRAS WT, GTP-loaded. The class given is binding. The procedure, abridged:
as §1

Test [4] addresses T4, Avi-KRAS G12C (2-169) GTP/RAF1 RBD-3xFLAG (51-131) (Homo sapiens, UniProt P01116, G12C).
T4 construct: Avi-KRAS G12C (2-169)
As to the kind of experiment: Raf1-KRAS G12C-GTP disruption HTRF assay (Biological Example 3). The class given is binding. Conditions: KRAS G12C, GTP-loaded. The procedure, abridged: as §1

T4 sequence (P01116 2-169 isoform P01116-2 G12C): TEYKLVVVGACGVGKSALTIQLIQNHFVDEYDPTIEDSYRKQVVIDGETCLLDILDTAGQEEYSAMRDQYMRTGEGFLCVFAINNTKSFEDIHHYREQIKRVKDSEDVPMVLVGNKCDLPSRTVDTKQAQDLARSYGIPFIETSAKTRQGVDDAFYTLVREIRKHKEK
T1 sequence (P01116 2-169 isoform P01116-2 G12D): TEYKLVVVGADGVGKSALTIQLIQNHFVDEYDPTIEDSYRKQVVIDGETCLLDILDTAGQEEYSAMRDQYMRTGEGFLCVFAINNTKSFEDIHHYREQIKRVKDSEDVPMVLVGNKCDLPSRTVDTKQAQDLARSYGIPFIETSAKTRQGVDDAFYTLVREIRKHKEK

Turning to `CCN(Cc1cccnc1)c1nc(OC[C@@]23CCCN2C[C@H](F)C3)nc2c(F)c(-c3ccc(F)c4sc(N)c(C#N)c34)c(C(F)(F)F)cc12` (atropisomer, axis not shown) [Compound 862], the IC50 (commonly the concentration at which inhibition is half-maximal) in the test with GP2d cells (KRAS G12D) is less than 100 nM; in test [1] it was 1000 to 10000 nM; in test [2] it was 1000 to 10000 nM; in the test with SW620 cells (KRAS G12V), less than 100 nM; in test [3], 1000 to 10000 nM; in test [4], 1000 to 10000 nM.
As to `CCN(c1nc(OC[C@@]23CCCN2C[C@H](F)C3)nc2c(F)c(-c3ccc(F)c4sc(N)c(C#N)c34)c(C(F)(F)F)cc12)[C@H]1C[C@H]2[C@H](C)N(C)C(=O)N2C1` (atropisomer, axis not shown) [Compound 863], the IC50 with GP2d cells (KRAS G12D) is less than 100 nM; in test [1] it was not above 100 nM; in test [2], not above 100 nM; in the test with SW620 cells (KRAS G12V), less than 100 nM; in test [3], 100 to 1000 nM; in test [4], not above 100 nM.
On to `CCN(c1nc(OC[C@@]23CCCN2C[C@H](F)C3)nc2c(F)c(-c3ccc(F)c4sc(N)c(C#N)c34)c(C(F)(F)F)cc12)[C@H]1C[C@H]2CC(C)(C)C(=O)N2C1` (atropisomer, axis not shown) [Compound 864], for which the IC50 is less than 100 nM in the test with GP2d cells (KRAS G12D); not above 100 nM in test [1]; 100 to 1000 nM in test [2]; less than 100 nM in the test on SW620 cells (KRAS G12V); 100 to 1000 nM in test [3]; 100 to 1000 nM in test [4].
As to `CN(Cc1ccccn1)c1nc(OC[C@@]23CCCN2C[C@H](F)C3)nc2c(F)c(-c3ccc(F)c4sc(N)c(C#N)c34)c(C(F)(F)F)cc12` (atropisomer, axis not shown) [Compound 865], the IC50 in the test with GP2d cells (KRAS G12D) was less than 100 nM; in test [1] it was 100 to 1000 nM; in test [2], 1000 to 10000 nM; with SW620 cells (KRAS G12V), less than 100 nM; in test [3], 1000 to 10000 nM; in test [4], 1000 to 10000 nM.
For the molecule `CCN(c1nc(OC[C@@]23CCCN2C[C@H](F)C3)nc2c(F)c(-c3ccc(F)c4sc(N)c(C#N)c34)c(C(F)(F)F)cc12)[C@H]1C[C@H]2C[C@@H](C)C(=O)N2C1` (atropisomer, axis not shown) [Compound 866], the IC50 is less than 100 nM in the test on GP2d cells (KRAS G12D); not above 100 nM in test [1]; not above 100 nM in test [2]; less than 100 nM in the test with SW620 cells (KRAS G12V); not above 100 nM in test [3]; not above 100 nM in test [4].
As to `CN(Cc1ccncc1)c1nc(OC[C@@]23CCCN2C[C@H](F)C3)nc2c(F)c(-c3ccc(F)c4sc(N)c(C#N)c34)c(C(F)(F)F)cc12` (atropisomer, axis not shown) [Compound 867], the IC50 with GP2d cells (KRAS G12D) was less than 100 nM; in test [1], 1000 to 10000 nM; in test [2] it was 1000 to 10000 nM; in the test with SW620 cells (KRAS G12V) it was less than 100 nM; in test [3] it was 1000 to 10000 nM; in test [4], 1000 to 10000 nM.
For `CCN(c1nc(OC[C@@]23CCCN2C[C@H](F)C3)nc2c(F)c(-c3ccc(F)c4sc(N)c(C#N)c34)c(C(F)(F)F)cc12)[C@H]1CCN(C(=O)[C@H]2CCO2)[C@H]1C` (atropisomer, axis not shown) [Compound 868], the IC50 with GP2d cells (KRAS G12D) is less than 100 nM; in test [1], 100 to 1000 nM; in test [2] it was 1000 to 10000 nM; in the test on SW620 cells (KRAS G12V), 100 to 1000 nM; in test [3] it was 1000 to 10000 nM; in test [4], 1000 to 10000 nM.
Consider `CCN(c1nc(OC[C@@]23CCCN2C[C@H](F)C3)nc2c(F)c(-c3ccc(F)c4sc(N)c(C#N)c34)c(C(F)(F)F)cc12)[C@H]1C[C@H](COC)N(C(=O)[C@@H]2C[C@@H]2F)C1` (atropisomer, axis not shown) [Compound 869], for which the IC50 was less than 100 nM in the test with GP2d cells (KRAS G12D); 100 to 1000 nM in test [1]; 100 to 1000 nM in test [2]; less than 100 nM with SW620 cells (KRAS G12V); 100 to 1000 nM in test [3]; 100 to 1000 nM in test [4].
`CN(Cc1cnccn1)c1nc(OC[C@@]23CCCN2C[C@H](F)C3)nc2c(F)c(-c3ccc(F)c4sc(N)c(C#N)c34)c(C(F)(F)F)cc12` (atropisomer, axis not shown) [Compound 872]: the IC50 in the test with GP2d cells (KRAS G12D) is less than 100 nM; in test [1] it was 100 to 1000 nM; in test [2], 100 to 1000 nM; with SW620 cells (KRAS G12V) it was less than 100 nM; in test [3] it was 1000 to 10000 nM; in test [4], 100 to 1000 nM.
With `CCN(c1nc(OC[C@@]23CCCN2C[C@H](F)C3)nc2c(F)c(-c3ccc(F)c4sc(N)c(C#N)c34)c(C(F)(F)F)cc12)[C@H]1CC[C@@](C)(C(=O)N(C)C)C1` (atropisomer, axis not shown) [Compound 873], the IC50 in the test with GP2d cells (KRAS G12D) was less than 100 nM; in test [1], 1000 to 10000 nM; in test [2], 1000 to 10000 nM; in the test with SW620 cells (KRAS G12V), less than 100 nM; in test [3], 100 to 1000 nM; in test [4], 1000 to 10000 nM.
For the molecule `CN(Cc1cccnn1)c1nc(OC[C@@]23CCCN2C[C@H](F)C3)nc2c(F)c(-c3ccc(F)c4sc(N)c(C#N)c34)c(C(F)(F)F)cc12` (atropisomer, axis not shown) [Compound 876], the IC50 was less than 100 nM in the test on GP2d cells (KRAS G12D); 100 to 1000 nM in test [1]; 100 to 1000 nM in test [2]; less than 100 nM in the test on SW620 cells (KRAS G12V); 1000 to 10000 nM in test [3]; 100 to 1000 nM in test [4].
For the molecule `CCN(c1nc(OC[C@@]23CCCN2C[C@H](F)C3)nc2c(F)c(-c3ccc(F)c4sc(N)c(C#N)c34)c(C(F)(F)F)cc12)[C@H]1C[C@@H]2COCC(=O)N2C1` (atropisomer, axis not shown) [Compound 878], the IC50 in the test with GP2d cells (KRAS G12D) was less than 100 nM; in test [1] it was 100 to 1000 nM; in test [2], 100 to 1000 nM; with SW620 cells (KRAS G12V), less than 100 nM; in test [3], 100 to 1000 nM; in test [4], 100 to 1000 nM.
For the molecule `CN(Cc1cccc(=O)n1C)c1nc(OC[C@@]23CCCN2C[C@H](F)C3)nc2c(F)c(-c3ccc(F)c4sc(N)c(C#N)c34)c(C(F)(F)F)cc12` (atropisomer, axis not shown) [Compound 879], the IC50 in the test with GP2d cells (KRAS G12D) is less than 100 nM; in test [1], 1000 to 10000 nM; in test [2] it was more than 10000 nM; with SW620 cells (KRAS G12V), less than 100 nM; in test [3] it was more than 10000 nM; in test [4], more than 10000 nM.
With `CCN(c1nc(OC[C@@]23CCCN2C[C@H](F)C3)nc2c(F)c(-c3ccc(F)c4sc(N)c(C#N)c34)c(C(F)(F)F)cc12)[C@H]1CC(=O)N2CCC[C@H]12` (atropisomer, axis not shown) [Compound 880], the IC50 in the test with GP2d cells (KRAS G12D) was less than 100 nM; in test [1], 100 to 1000 nM; in test [2] it was not above 100 nM; with SW620 cells (KRAS G12V) it was less than 100 nM; in test [3] it was 100 to 1000 nM; in test [4], not above 100 nM.
Regarding `CCN(c1nc(OC[C@@]23CCCN2C[C@H](F)C3)nc2c(F)c(-c3ccc(F)c4sc(N)c(C#N)c34)c(C(F)(F)F)cc12)[C@H]1C[C@H]2COCC(=O)N2C1` (atropisomer, axis not shown) [Compound 882], the IC50 in the test on GP2d cells (KRAS G12D) is less than 100 nM; in test [1] it was not above 100 nM; in test [2], not above 100 nM; with SW620 cells (KRAS G12V), less than 100 nM; in test [3] it was 100 to 1000 nM; in test [4] it was not above 100 nM.
On to `CN(Cc1ncco1)c1nc(OC[C@@]23CCCN2C[C@H](F)C3)nc2c(F)c(-c3ccc(F)c4sc(N)c(C#N)c34)c(C(F)(F)F)cc12` (atropisomer, axis not shown) [Compound 885], for which the IC50 in the test on GP2d cells (KRAS G12D) is less than 100 nM; in test [1], 100 to 1000 nM; in test [2] it was 100 to 1000 nM; in the test with SW620 cells (KRAS G12V), less than 100 nM; in test [3] it was 1000 to 10000 nM; in test [4], 100 to 1000 nM.
On to `CCN(c1nc(OC[C@@]23CCCN2C[C@H](F)C3)nc2c(F)c(-c3ccc(F)c4sc(N)c(C#N)c34)c(C(F)(F)F)cc12)[C@H]1CCN(C(=O)[C@@H]2CC2(F)F)[C@H]1C` (atropisomer, axis not shown) [Compound 887], for which the IC50 was less than 100 nM in the test with GP2d cells (KRAS G12D); 1000 to 10000 nM in test [1]; 1000 to 10000 nM in test [2]; 100 to 1000 nM in the test with SW620 cells (KRAS G12V); 1000 to 10000 nM in test [3]; 1000 to 10000 nM in test [4].
Consider `CCN(c1nc(OC[C@@]23CCCN2C[C@H](F)C3)nc2c(F)c(-c3ccc(F)c4sc(N)c(C#N)c34)c(C(F)(F)F)cc12)[C@H]1CCN(C(=O)[C@@H]2C[C@@H]2F)[C@@H]1C` (atropisomer, axis not shown) [Compound 889], for which the IC50 in the test with GP2d cells (KRAS G12D) was less than 100 nM; in test [1] it was 100 to 1000 nM; in test [2] it was 100 to 1000 nM; in the test with SW620 cells (KRAS G12V), less than 100 nM; in test [3], 100 to 1000 nM; in test [4], 100 to 1000 nM.

Source of the values: patent US20260042764A1, “COMPOSITIONS AND METHODS FOR INHIBITION OF KRAS” (TheRas, Inc., priority 2022, published 2026).
